# In patent publication US20160257697A1, “THIOPHENE-SUBSTITUTED TETRACYCLIC COMPOUNDS AND METHODS OFUSE THEREOF FOR THE TREATMENT OF VIRAL DISEASES” (priority 2013, published 2016):
# Read-outs that look alike come from different tables or passages of the source.
# How the values were obtained:
# Test in all cases: microbe, parasite or virus in culture
# Type in all cases: cell-based, Hepatitis C virus (HCV)
# Conditions in all cases: Replicon Assay A
# HCV replicon 2B = system: HCV replicon 2B
# Summary of the method: (§1)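 Compound is added to replicon cells plated at 2000 cells/well (0.5% DMSO, 5% FBS). After 3 days the cells are washed and lysed, and HCV RNA and cyclophilin mRNA are quantified by multiplex RT-PCR against a standard curve of known replicon total RNA.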
# HCV replicon 1A = system: HCV replicon 1A
# Summary of the method: as §1
# HCV replicon 1AY93H = system: HCV replicon 1AY93H
# Summary of the method: as §1
# [1] = read-out: 1A Y93H IC50, replicon 1AY93H
# [2] = Hepatitis C virus, HCV replicon 1A
# [3] = Hepatitis C virus, read-out: 1A Y93H IC50 (nM), replicon 1AY93H
# [4] = Hepatitis C virus, read-out: 2B IC50, HCV replicon 2B
# [5] = Hepatitis C virus, read-out: 1A Y93H IC50, HCV replicon 1A Y93H
SMILES,"IC50 (HCV replicon 2B; read-out: 2B IC50, replicon 2B) [nM]","IC50 (HCV replicon 1A; Hepatitis C virus, replicon 1A) [nM]",IC50 (HCV replicon 1AY93H; [1]) [nM],IC50 (HCV replicon 1A; replicon 1A) [nM],further results
"COC(=O)N[C@H](C(=O)N1CCC[C@H]1c1ncc(-c2cc(F)c3c(c2)OC(c2ccc(OC)s2)n2c-3cc3cc(-c4cnc([C@@H]5CCCN5C(=O)[C@@H](NC(=O)OC)C(C)C)[nH]4)ccc32)[nH]1)C(C)C (single isomer, unassigned) [Compound 19]",1.88,0.0016,0.5,,
"COC(=O)N[C@H](C(=O)N1C[C@H](F)C[C@H]1c1ncc(-c2ccc3c(c2)cc2n3C(c3cc4ccccc4s3)Oc3cc(-c4cnc([C@@H]5CCCN5C(=O)[C@@H](NC(=O)OC)C5CCOCC5)[nH]4)ccc3-2)[nH]1)C(C)C (single isomer, unassigned) [Compound 623]",,,,,"IC50 (HCV replicon 2B; read-out: 2B IC50, HCV replicon 2B): 0.345 nM; IC50 (HCV replicon 1A; [2]): 0.0024 nM; IC50 (HCV replicon 1AY93H; read-out: 1A Y93H IC50, HCV replicon 1A Y93H): 0.0213 nM"
"COC(=O)NC(C(=O)N1CCC[C@H]1c1ncc(-c2cc(F)c3c(c2)OC(c2ccc(C4CC4)s2)n2c-3cc3cc(-c4cnc([C@@H]5CCCN5C(=O)[C@@H](NC(=O)OC)C(C)C)[nH]4)ccc32)[nH]1)C1CCOC(C)(C)C1 (single isomer, unassigned) [Compound 211]",0.42,,0.22,0.0026,
"COC(=O)NC(C(=O)N1CCC[C@H]1c1ncc(-c2cc(F)c3c(c2)OC(c2ccc(C(C)C)s2)n2c-3cc3cc(-c4cnc([C@@H]5CCCN5C(=O)[C@@H](NC(=O)OC)C(C)C)[nH]4)ccc32)[nH]1)C1CCOC(C)(C)C1 (single isomer, unassigned) [Compound 246]",,0.0011,,,"IC50 (HCV replicon 2B; Hepatitis C virus, read-out: 2B IC50 (nM), replicon 2B): 0.27 nM; IC50 (HCV replicon 1AY93H; [3]): 0.58 nM"
"COC(=O)NC(C(=O)N1CCC[C@H]1c1ncc(-c2ccc3c(c2)cc2n3C(c3ccc(C(C)C)s3)Oc3cc(-c4cnc([C@@H]5CCCN5C(=O)[C@@H](NC(=O)OC)C(C)C)[nH]4)cc(F)c3-2)[nH]1)C1CCOC(C)(C)C1 (single isomer, unassigned) [Compound 237]",0.4,,0.21,0.0012,
CCN(CC)[C@@H](C(=O)N1C[C@H](F)C[C@H]1c1nc(-c2ccc3c(c2)OC(c2ccc(C4CC4)s2)n2c-3cc3cc(-c4c[nH]c([C@@H]5C[C@@H](F)CN5C(=O)[C@@H](c5ccccc5)N(CC)CC)n4)ccc32)c[nH]1)c1ccccc1 (mixture of isomers) [Compound 733],,,,,IC50 (HCV replicon 2B; [4]): 0.063 nM; IC50 (HCV replicon 1A; [2]): 0.045 nM; IC50 (HCV replicon 1AY93H; [5]): 0.35 nM
"COC(=O)NC(C(=O)N1CCC[C@H]1c1ncc(-c2cc(F)c3c(c2)OC(c2ccc(C4CC4)s2)n2c-3cc3cc(-c4cnc([C@@H]5CCCN5C(=O)C(NC(=O)OC)C(C)(C)F)[nH]4)ccc32)[nH]1)C(C)(C)F (single isomer, unassigned) [Compound 110]",2.43,0.002,1.97,,
COC(=O)N[C@H](C(=O)N1C[C@H](F)C[C@H]1c1ncc(-c2ccc3c(c2)OC(c2ccc(C4CC4)s2)n2c-3cc3cc(-c4cnc([C@@H]5C[C@@H](F)CN5C(=O)[C@@H](NC(=O)OC)C5CCOCC5)[nH]4)ccc32)[nH]1)C1CCOCC1 (mixture of isomers) [Compound 734],,,,,IC50 (HCV replicon 2B; [4]): 116 nM; IC50 (HCV replicon 1A; [2]): 0.42 nM; IC50 (HCV replicon 1AY93H; [5]): 0.24 nM
"[2H]C(C)(C)C(NC(=O)OC)C(=O)N1CCC[C@H]1c1ncc(-c2cc(F)c3c(c2)OC(c2ccc(C4CC4)s2)n2c-3cc3cc(-c4cnc([C@@H]5CCCN5C(=O)[C@@H](NC(=O)OC)C(C)C)[nH]4)ccc32)[nH]1 (single isomer, unassigned) [Compound 31]",0.083,,0.02,0.002,
"COC(=O)NC(C(=O)N1CCC[C@H]1c1ncc(-c2ccc3c(c2)cc2n3C(c3ccc(C(C)C)s3)Oc3cc(-c4cnc([C@@H]5CCCN5C(=O)[C@@H](NC(=O)OC)C(C)C)[nH]4)cc(F)c3-2)[nH]1)C1CCOC(C)(C)C1 (single isomer, unassigned) [Compound 242]",4.42,,0.75,0.0011,
"CCc1ccc(C2Oc3cc(-c4cnc([C@@H]5CCCN5C(=O)C(NC(=O)OC)C5CCOC(C)(C)C5)[nH]4)cc(F)c3-c3cc4cc(-c5cnc([C@@H]6CCCN6C(=O)[C@@H](NC(=O)OC)C(C)C)[nH]5)ccc4n32)s1 (single isomer, unassigned) [Compound 160]",19.1,,24.9,0.114,
"COC(=O)N[C@H](C(=O)N1CCC[C@H]1c1ncc(-c2cc(F)c3c(c2)OC(c2ccc(C(C)CF)s2)n2c-3cc3cc(-c4cnc([C@@H]5CCCN5C(=O)[C@@H](NC(=O)OC)C(C)C)[nH]4)ccc32)[nH]1)C(C)C (single isomer, unassigned) [Compound 332]",1.39,0.0011,,,IC50 (HCV replicon 1AY93H; [3]): 0.765 nM
